Where two headings read alike, the source gives them in different places.
How the values were obtained:
[1] = test system: ML2; test: Secondary dose-response HTS, Cell Titer Glo; format: cell-based, human; conditions: secondary high-throughput screen, ML-2; for EC50: Homo sapiens, read-out: average effective concentration, ML-2
[2] = test system: M07e; test: Secondary dose-response HTS, Cell Titer Glo; format: cell-based, human; conditions: secondary high-throughput screen; for EC50: read-out: average effective concentration, M07e
[3] = test system: U937; test: Secondary dose-response HTS, Cell Titer Glo; format: cell-based, human; conditions: secondary high-throughput screen, U937; for EC50: Homo sapiens, U-937, read-out: average effective concentration, U937
[4] = test system: MOLM-13; test: Secondary dose-response HTS, Cell Titer Glo; format: cell-based, human; conditions: secondary high-throughput screen, MOLM-13; for EC50: read-out: average effective concentration, MOLM-13
[5] = test system: MV4-11; test: Secondary dose-response HTS, Cell Titer Glo; format: cell-based, human; conditions: secondary high-throughput screen, MV4-11; for EC50: read-out: average effective concentration, MV4-11
[6] = test system: CHRF288-11; test: Secondary dose-response HTS, Cell Titer Glo; format: cell-based, human; conditions: secondary high-throughput screen, CHRF288-11
[7] = test system: CMK; test: Secondary dose-response HTS, Cell Titer Glo; format: cell-based, human; conditions: CMK; for EC50: read-out: average effective concentration, CMK
[8] = test system: CMS; test: cells; design: species or system AML cell lines (8); Secondary HTS, 10-point dose-response in triplicate, Cell Titer Glo viability, four-parameter fit EC50; conditions: 72 h, read-out: CMS
[9] = test system: CHRF288-11; test: cells; design: species or system AML cell lines (8); Secondary HTS, 10-point dose-response in triplicate, Cell Titer Glo viability, four-parameter fit EC50; conditions: 72 h, read-out: CHRF288-11
[10] = test system: CMK; test: cells; design: species or system AML cell lines (8); Secondary HTS, 10-point dose-response in triplicate, Cell Titer Glo viability, four-parameter fit EC50; conditions: Homo sapiens, CMK, 72 h, read-out: CMK
[11] = secondary high-throughput screen

Compound | average effective concentration, ML-2 [1] | average effective concentration, M07e ([2]; M07e) | average effective concentration, U937 [3] | average effective concentration, MOLM-13 [4] | average effective concentration, MV4-11 [5] | average effective concentration, CHRF288-11 [6] | average effective concentration, CMK [7, 11] | also measured
CCOC(=O)C1=C(C)NC2=C(C(=O)CC(C)(C)C2)C1c1ccc(-c2ccccc2)cc1 (centres unmarked) [ITD-1] | Inactive | Inactive | Inactive | Inactive | Inactive | Inactive | Inactive | 
Cc1ccc(F)c(NC(=O)Nc2ccc(-c3cccc4[nH]nc(N)c34)cc2)c1 [LINIFANIB] |  |  |  |  |  |  |  | EC50 [8]: > 10 µM; EC50 [1]: > 10 µM; EC50 ([2]; Homo sapiens, M-07e, M07e): > 10 µM; EC50 [3]: 6 µM; EC50 [9]: > 10 µM; EC50 ([4]; Homo sapiens): 0.007 µM; EC50 ([5]; Homo sapiens): 0.003 µM; EC50 ([7]; Homo sapiens): 5.8 µM
Cn1cc(C(=O)Cc2ccccc2)cc1/C=C/C(=O)NO [MC 1293] |  |  | Inactive |  | Inactive | Inactive |  | EC50 ([2]; M07e): 0.45 µM; EC50 [7, 11]: 8.7 µM
COc1c(C)c2c(c(O)c1C/C=C(\C)CCC(=O)OCCN1CCOCC1)C(=O)OC2 [MYCOPHENOLATE MOFETIL] |  |  |  |  |  |  |  | EC50 [8]: > 10 µM; EC50 [1]: 1.3 µM; EC50 ([2]; Homo sapiens, M-07e, M07e): > 10 µM; EC50 [3]: 3 µM; EC50 ([4]; Homo sapiens): 1.5 µM; EC50 ([5]; Homo sapiens): 1.9 µM; EC50 ([6]; Homo sapiens, HTS, read-out: average effective concentration, CHRF288-11): 2.9 µM; EC50 ([7]; Homo sapiens): 7.5 µM
CCNC(=O)c1cc2c(-c3cc(OCCN4CCCC4)c(Cl)cc3Cl)nc(N)nc2s1 [NVP-BEP800] |  |  |  |  |  |  |  | average effective concentration, M07e ([2]; […]): Inactive
COc1ccc(Cn2ccc3ccc(C(=O)NO)cc32)cc1 [PCI 34051] | Inactive |  | Inactive | Inactive | Inactive | Inactive | Inactive | average effective concentration, M07e ([2]; […]): Inactive
COc1ccc(-c2cc3c(C)nc(N)nc3n([C@H]3CC[C@H](OCCO)CC3)c2=O)cn1 [PF-04691502] |  | Inactive |  |  |  |  |  | 
O=C(CCCCCCC(=O)Nc1cccnc1)NO [PYROXAMIDE] |  |  |  |  |  |  |  | EC50 [8]: > 10 µM; EC50 [1]: > 10 µM; EC50 ([2]; Homo sapiens, M-07e, M07e): 8.2 µM; EC50 [3]: 5.8 µM; EC50 [9]: > 10 µM; EC50 ([4]; Homo sapiens): 6 µM; EC50 ([5]; Homo sapiens): 1.6 µM; EC50 [10]: > 10 µM
CC(=O)Nc1ccc(NC(=S)NC(=O)c2ccc(C(C)(C)C)cc2)cc1 [TENOVIN-1] | Inactive | Inactive |  | Inactive | Inactive | Inactive | Inactive | 
O=c1[nH]c2sccc2c2ccccc12 [TIQ-A] | Inactive |  | Inactive |  |  | Inactive | Inactive | EC50 ([2]; M07e): 7 µM; EC50 [4]: 4.2 µM; EC50 [5]: 3.5 µM
N#Cc1ccc(COC[C@H]2O[C@@H](n3c(NCc4ccc(Cl)c(Cl)c4)nc4c(N)ncnc43)[C@H](O)[C@@H]2O)cc1 [VER-155008] | Inactive | Inactive | Inactive | Inactive | Inactive | Inactive | Inactive | 
CCOc1cc(N2CCC(O)CC2)ccc1Nc1ncc2c(n1)N(C)c1ccccc1C(=O)N2C [XMD 8-92] | Inactive | Inactive |  |  |  | Inactive |  | 
